Measured values: PubChem BioAssay AID2060502 (Molecular Pharmacology Branch, DTP, NCI, 2025)
Several values for one entry are separate records, joined by “and”; a condition that tells them apart may be missing. Identical values can stand only once.

System: 885724-159-R-J1-PDC complex spheroid viability
Experiment: Anticancer human tumor 885724-159-R-J1-PDC patient-derived pancreatic adenocarcinoma cell line growth inhibition [GQUAD]
Settings: for viability, T/C: stronger effect = lower value
Text: DNA G-quadruplex Stabilizer Agents in Combinations in Complex Spheroids
A high-throughput screen of multi-cell type tumor spheroids was designed to identify active combinations of DNA G-quadruplex stabilizer agents and targeted small molecules. Complex spheroids include a stromal component modeled by human endothelial cells (HUVEC) and fibroblasts modeled by human mesenchymal stem cells (MSCs). The concentration ranges selected for each drug and investigational agent were based upon clinically achievable concentrations if the clinical Cmax of the agent was known.
Compounds. The drugs and investigational agents: pidnarulex (CX-5461; NSC782164), APTO-253 (NSC789042), BRACO-19 (NSC847499), peposertib (NSC802822), ceralasertib (NSC780249), elimusertib (NSC800525), camonsertib (NSC841442), AZD-1390 (NSC803789), olaparib (NSC753686), talazoparib (NSC767125), ART-558 (NSC835418), sotorasib (NSC818433), MRTX-1133 (NSC836407), SN-38 (NSC673596), topotecan (NSC609699), etoposide (NSC141540), doxorubicin (NSC123127), gemcitabine (NSC613327), 5-fluorouracil (NSC19893), paclitaxel (NSC125973), vemurafenib (NSC761431), panobinostat (NSC761190), R-306465 (JNJ-16241199; NSC773264), adavosertib (NSC754352), TP-3654 (NSC805149), carboplatin (NSC241240), KSQ-4279 (NSC840948), and staurosporine (NSC755774) were obtained from the National Cancer Institute (NCI) Developmental Therapeutics Program Chemical Repository (34). The FDA-approved anticancer drug set is available from the NCI Developmental Therapeutics Program. […] The stock solutions were prepared in dimethyl sulfoxide (DMSO, Sigma-Aldrich, St. Louis, MO, cat. D2650) at 800-fold the tested concentration and stored at -70 degrees C prior to their use. All drugs and investigational agents were tested over a range starting from a high concentration at or near the clinical Cmax and decreasing in half-log increments. If the clinical Cmax for an agent had not been determined, the highest concentration tested was 10 microM.
2.3 Cell Culture. All cells were maintained in an incubator at 37 degrees C and 5% CO2 with 95% humidity. The PDC lines were cultured according to standard operating procedures established by the NCI PDMR. All PDCs were thawed and cultured in Matrigel-coated flasks prepared with a working solution of 1X Ham's F-12 nutrient mix, without supplementation (Invitrogen, cat. 11765054), 100 U/mL penicillin-streptomycin (Invitrogen, cat. 15140122), and 2.5% Matrigel (Corning Inc., cat. 354248) for the first three passages. The 857933-349-R-J2-PDC line was cultured in 6C/Colon 1B media, which includes advanced DMEM/F-12 (Thermo Fisher Scientific, cat. 12634028), 10 mM HEPES (Thermo Fisher Scientific, cat. 15630080), 1X GlutaMAX supplement (Thermo Fisher Scientific, cat. 35050061), 0.1 mg/mL primocin (InvivoGen, cat. ant-pm-2), 10% defined fetal bovine serum, heat inactivated (HyClone Laboratories Inc., cat. SH30070.03HI), 50% L-WRN conditioned media (ATCC, cat. CRL-3276), 1.25 mM N-Acetyl-L-cysteine (Sigma-Aldrich, cat. A9165), 10 mM nicotinamide (Sigma-Aldrich, cat. N0636), 1X B-27 supplement (Thermo Fisher Scientific, cat. 17504044), 1X N-2 supplement (Thermo Fisher Scientific, cat. 17502048), 10 microM Y-27632 dihydrochloride (Tocris Bioscience, cat. 1254), and 50 ng/mL human EGF recombinant protein (Thermo Fisher Scientific, cat. PHG0311). The 485176-168-R4-J1-PDC line was cultured in Panc media, which includes all 6C/Colon 1B media components plus 100 ng/mL human FGF-10 (Thermo Fisher Scientific, cat. 100-26), 500 nM SB-431542 (Selleckchem, cat. S1067), and gastrin (Tocris, cat. 3006).
[…]

[1] = curve of first compound, second compound 0.0316 µM
[2] = curve of first compound, second compound 0.1 µM
[3] = curve of first compound, second compound 0.316 µM
[4] = curve of first compound, second compound 1 µM
[5] = curve of first compound, second compound 3.16 µM
[6] = curve of first compound, second compound 10 µM
[7] = second compound 0.0316 µM, first compound 0.0316 µM
[8] = second compound 0.0316 µM, first compound 0.1 µM
[9] = second compound 0.0316 µM, first compound 0.316 µM
[10] = second compound 0.0316 µM, first compound 1 µM
[11] = second compound 0.0316 µM, first compound 3.16 µM
[12] = second compound 0.0316 µM, first compound 10 µM
[13] = second compound 0.1 µM, first compound 0.0316 µM
[14] = second compound 0.1 µM, first compound 0.1 µM
[15] = second compound 0.1 µM, first compound 0.316 µM
[16] = second compound 0.1 µM, first compound 1 µM
[17] = second compound 0.1 µM, first compound 3.16 µM
[18] = second compound 0.1 µM, first compound 10 µM
[19] = second compound 0.316 µM, first compound 0.0316 µM
[20] = second compound 0.316 µM, first compound 0.1 µM
[21] = second compound 0.316 µM, first compound 0.316 µM
[22] = second compound 0.316 µM, first compound 1 µM
[23] = second compound 0.316 µM, first compound 3.16 µM
[24] = second compound 0.316 µM, first compound 10 µM
[25] = second compound 1 µM, first compound 0.0316 µM
[26] = second compound 1 µM, first compound 0.1 µM
[27] = second compound 1 µM, first compound 0.316 µM
[28] = second compound 1 µM, first compound 1 µM
[29] = second compound 1 µM, first compound 3.16 µM
[30] = second compound 1 µM, first compound 10 µM
[31] = second compound 3.16 µM, first compound 0.0316 µM
[32] = second compound 3.16 µM, first compound 0.1 µM
[33] = second compound 3.16 µM, first compound 0.316 µM
[34] = second compound 3.16 µM, first compound 1 µM
[35] = second compound 3.16 µM, first compound 3.16 µM
[36] = second compound 3.16 µM, first compound 10 µM
[37] = second compound 10 µM, first compound 0.0316 µM
[38] = second compound 10 µM, first compound 0.1 µM
[39] = second compound 10 µM, first compound 0.316 µM
[40] = second compound 10 µM, first compound 1 µM
[41] = second compound 10 µM, first compound 3.16 µM
[42] = second compound 10 µM, first compound 10 µM
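Also: spheroids exposed to agents for seven days before readout.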
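For viability, T/C in this document: percent of vehicle control viability where 100% = DMSO wells.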

Compound `CC1COCCN1c1cc(-c2ccnn2C)c2ccnc(-c3ccn[nH]3)c2n1` (stereo unspecified) + Cc1cnc(CNC(=O)c2c(=O)c3ccc(N4CCCN(C)CC4)nc3n3c2sc2ccccc23)cn1 has an IC50 [1] of 2.66 µM, an IC50 [2] of 5.19 µM and an IC50 [3] of 4.11 µM. It also gave an IC50 [4] of 1.59 µM, an IC50 [5] of 0.609 µM and an IC50 [6] of 0.728 µM. The viability, T/C [7] was 86.4%, the viability, T/C [8] was 81.4% and the viability, T/C [9] was 76.3%. For the same compound, the viability, T/C [10] was 54.9%, the viability, T/C [11] was 52.8% and the viability, T/C [12] was 38.5%. The viability, T/C [13] was 99.4%, the viability, T/C [14] was 81.1% and the viability, T/C [15] was 82.4%. The viability, T/C [16] was 73.5%, the viability, T/C [17] was 54% and the viability, T/C [18] was 41.3%. For the same compound, the viability, T/C [19] was 94.2%, the viability, T/C [20] was 90.3% and the viability, T/C [21] was 72.9%. It also gave a viability, T/C [22] of 62.2%, a viability, T/C [23] of 55.2% and a viability, T/C [24] of 41.3%. It also gave a viability, T/C [25] of 82.4%, a viability, T/C [26] of 74.1% and a viability, T/C [27] of 69.3%. It also gave a viability, T/C [28] of 57.2%, a viability, T/C [29] of 39.8% and a viability, T/C [30] of 33.9%. It also gave a viability, T/C [31] of 64.8%, a viability, T/C [32] of 65.7% and a viability, T/C [33] of 58.4%. The viability, T/C [34] was 42.7%, the viability, T/C [35] was 37.3% and the viability, T/C [36] was 30.9%. For the same compound, the viability, T/C [37] was 65.1%, the viability, T/C [38] was 61.6% and the viability, T/C [39] was 57.3%. The viability, T/C [40] was 48.2%, the viability, T/C [41] was 30.6% and the viability, T/C [42] was 25.2%.
In the case of `Nc1ccn(C2OC(CO)C(O)C2(F)F)c(=O)n1` (stereo unspecified) + Cc1cnc(CNC(=O)c2c(=O)c3ccc(N4CCCN(C)CC4)nc3n3c2sc2ccccc23)cn1, the IC50 [1] is reported as greater than 10 µM, the IC50 [2] is reported as greater than 10 µM and the IC50 [3] is reported as greater than 10 µM. The IC50 [4] was greater than 10 µM, the IC50 [5] was greater than 10 µM and the IC50 [6] was greater than 10 µM. The viability, T/C [7] was 105%, the viability, T/C [8] was 104% and the viability, T/C [9] was 82%. For the same compound, the viability, T/C [10] was 98.1%, the viability, T/C [11] was 74.9% and the viability, T/C [12] was 70.3%. For the same compound, the viability, T/C [13] was 96.8%, the viability, T/C [14] was 113% and the viability, T/C [15] was 82.9%. The viability, T/C [16] was 82.4%, the viability, T/C [17] was 81.5% and the viability, T/C [18] was 84.4%. The viability, T/C [19] was 97%, the viability, T/C [20] was 97.9% and the viability, T/C [21] was 88.6%. For the same compound, the viability, T/C [22] was 78.3%, the viability, T/C [23] was 89.9% and the viability, T/C [24] was 78.8%. For the same compound, the viability, T/C [25] was 85.5%, the viability, T/C [26] was 87.4% and the viability, T/C [27] was 80.2%. It also gave a viability, T/C [28] of 77%, a viability, T/C [29] of 69.2% and a viability, T/C [30] of 70.6%. The viability, T/C [31] was 75%, the viability, T/C [32] was 76.3% and the viability, T/C [33] was 78%. It also gave a viability, T/C [34] of 62.9%, a viability, T/C [35] of 70.9% and a viability, T/C [36] of 68.4%. The viability, T/C [37] was 72.4%, the viability, T/C [38] was 75.1% and the viability, T/C [39] was 71.4%. The viability, T/C [40] was 69.2%, the viability, T/C [41] was 70.9% and the viability, T/C [42] was 74.8%.
With `CCCS(=O)(=O)Nc1ccc(F)c(C(=O)c2c[nH]c3ncc(-c4ccc(Cl)cc4)cc23)c1F` the viability, T/C (compound 0.0316 µM) was 98.5% and 105% and 90.7%, the viability, T/C (compound 0.1 µM) was 90.2% and 105% and 92.3% and the viability, T/C (compound 0.316 µM) was 111% and 124% and 116%. The viability, T/C (compound 1 µM) was 136% and 138% and 124%, the viability, T/C (compound 3.16 µM) was 148% and 137% and 134% and the viability, T/C (compound 10 µM) was 82% and 77.5% and 78.7%. For the same compound, the IC50 (curve of compound) was greater than 10 µM.
